Data as given in patent publication US6675105B2, “Structure-based identification of candidate compounds using three dimensional structures and models of Fc receptors” (Ilexus Pty Limited, priority 1998, dated 2004).

What was measured:
[1] = system: monomeric human immunoglobulin IgG3; test: BIAcore binding of PsFcγRIIa to immobilized monomeric human IgG3; settings: two site binding fit, 22° C., HBS pH 7.4
Protocol: (§1) Analysis of the interaction between PsFcγRIIa and monomeric immunoglobulin was performed using a BIAcorea 2000 biosensor (available from Pharmacia Biotech, Uppsala, Sweden) at about 22° C. in Hepes buffered saline (HBS; 10 mM Hepes [N-2-hydroxyethylpiperazine-N′-2-ethanesulfonic acid, available from Commonwealth Serum Laboratories, Parkville, Australia], pH 7.4, 150 mM NaCl, 3.4 mM EDTA and 0.005% Surfactant, available from Pharmacia). About 4000 to about 6000 response units (RU) of monomeric human immunoglobulin subclasses IgG1, IgG2, IgG3, and IgE (50 μg/ml of each) were covalently coupled to separate carboxymethylated dextran surface of each CM5 sensor-chips (available from BIAcore, Uppsala, Sweden) using a amine coupling kit (available from BIAcore), according to manufacturer's methods. A series of PsFcγRIIa concentrations (about 0.001 to about 1 mg/ml protein) was injected over each sensor-chip surface for about 1 minute at about 20 μl/min followed by about 3 minute dissociation phase. Following administration of the protein, the immunoglobulin surface was regenerated on each chip using a buffer containing 50 mM diethylamine pH 11.5, and 1 M NaCl. […]

[2] = system: monomeric human immunoglobulin IgG1; test: BIAcore binding of PsFcγRIIa to immobilized monomeric human IgG1; settings: 22° C., HBS pH 7.4
Sequence of monomeric human immunoglobulin IgG1 (P01857 99-223 limits assumed): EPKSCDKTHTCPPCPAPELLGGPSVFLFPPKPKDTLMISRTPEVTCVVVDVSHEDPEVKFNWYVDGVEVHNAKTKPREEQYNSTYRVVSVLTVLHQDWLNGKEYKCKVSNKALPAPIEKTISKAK
Protocol: as §1

Sequence of monomeric human immunoglobulin IgG3 (P01860 99-377 isoform P01860-1 limits assumed): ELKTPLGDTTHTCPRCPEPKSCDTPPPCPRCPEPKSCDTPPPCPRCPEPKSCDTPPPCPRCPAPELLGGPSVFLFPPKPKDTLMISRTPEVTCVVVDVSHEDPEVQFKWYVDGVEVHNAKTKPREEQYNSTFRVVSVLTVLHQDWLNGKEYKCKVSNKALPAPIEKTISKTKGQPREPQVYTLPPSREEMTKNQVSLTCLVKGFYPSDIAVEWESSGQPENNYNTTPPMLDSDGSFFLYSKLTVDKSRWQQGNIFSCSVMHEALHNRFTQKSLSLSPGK

PsFcγRIIa: recombinant soluble human FcγRIIa protein from baculovirus-infected Sf-21 cells; two species, SEQ ID NO:3 and SEQ ID NO:12
affinity for IgG3 ([1]; at 50% of the sites): about 2.7×10^6 M^−1 | affinity for IgG3 ([1]; at the remaining 50% of the sites): about 1.2×10^4 M^−1 | affinity of PsFcγRIIa for IgG1 ([2]; at about 90% of the ligand binding sites): about 2.1×10^6 M^−1 | affinity of PsFcγRIIa for IgG1 ([2]; at the remaining 10% of sites): about 2.3×10^4 M^−1
